pIC50: −log10 of the molar value. Values after ≈ are worked out from the molar mass of the structure shown. Like-named read-outs stand apart in the source and are kept apart here.
Tests used:
[1] = molecular target: Prolyl Oligopeptidase (hPREP) (Homo sapiens (Human), UniProt P48147); assay: hPREP inhibition assay; assay type: biochemical; details: hPREP 0.6 nM, Z-Gly-Pro-amino-methylcoumarin 50 μM; read-out: PREP IC50
Method: Compounds were tested in a biochemical inhibition assay using Prolyl endopeptidase, Prolyl Oligopeptidase (hPREP) enzyme at 0.6 nM FAC (R&D Systems, 4308-SE) and the substrate Z-Gly-Pro-amino-methylcoumarin (Bachem, I-1145) at 50 μM FAC. 384 Low volume black plates (Greiner #784076) were used. […] 4 μL, 100 μM substrate solution (25 mM Tris HCl, 250 mM NaCl, 0.01% Triton X-100, 5 mM Glutathione, pH 7.5) was added to each well. Plates were centrifuged at 1000 rpm and incubated for 20 min at rt in dark. […] Data were analyzed in Genedata Screener®.

[2] = Metabolic stability in human liver microsomes (HLM); assay type: in vitro ADME
Method: Metabolic stability in HLM was measured as described in J Comput Aided Mol Des 2015, 29, 795.

Human Hepatocytes (hHep) = assay: Metabolic stability in human hepatocytes (hHep); assay type: in vitro ADME
Method: Metabolic stability in human hepatocytes was measured as described in Xenobiotica 2010, 40, 637.

Rat Hepatocytes (rHep) = assay: Metabolic stability in rat hepatocytes (rHep); assay type: in vitro ADME
Method: Metabolic stability in rat hepatocytes was measured as described in J Comput Aided Mol Des 2015, 29, 795.

[3] = molecular target: human Fibroblast activation protein alpha (hFAP) (Homo sapiens (Human), UniProt Q12884); assay: hFAP inhibition assay (tight binders); assay type: biochemical; details: tight-binder format, Ala-Pro-AMC 20 μM, 2.5 h incubation; n = 1 or geometric mean (n = 5-10)
Method: Data were analyzed in Genedata Screener®.

Kinetic solubility = assay type: physicochemical
Method: Kinetic solubility was measured as described in Comput Aided Mol Des 2015, 29, 795.

hFAP = hFAP (Homo sapiens (Human), UniProt Q12884);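 note: fluorescence read after incubating enzyme with substrate at room temperature, IC50 fitted from percent inhibition against log concentration with a one-site model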
hFAP, sequence (Q12884 38-760): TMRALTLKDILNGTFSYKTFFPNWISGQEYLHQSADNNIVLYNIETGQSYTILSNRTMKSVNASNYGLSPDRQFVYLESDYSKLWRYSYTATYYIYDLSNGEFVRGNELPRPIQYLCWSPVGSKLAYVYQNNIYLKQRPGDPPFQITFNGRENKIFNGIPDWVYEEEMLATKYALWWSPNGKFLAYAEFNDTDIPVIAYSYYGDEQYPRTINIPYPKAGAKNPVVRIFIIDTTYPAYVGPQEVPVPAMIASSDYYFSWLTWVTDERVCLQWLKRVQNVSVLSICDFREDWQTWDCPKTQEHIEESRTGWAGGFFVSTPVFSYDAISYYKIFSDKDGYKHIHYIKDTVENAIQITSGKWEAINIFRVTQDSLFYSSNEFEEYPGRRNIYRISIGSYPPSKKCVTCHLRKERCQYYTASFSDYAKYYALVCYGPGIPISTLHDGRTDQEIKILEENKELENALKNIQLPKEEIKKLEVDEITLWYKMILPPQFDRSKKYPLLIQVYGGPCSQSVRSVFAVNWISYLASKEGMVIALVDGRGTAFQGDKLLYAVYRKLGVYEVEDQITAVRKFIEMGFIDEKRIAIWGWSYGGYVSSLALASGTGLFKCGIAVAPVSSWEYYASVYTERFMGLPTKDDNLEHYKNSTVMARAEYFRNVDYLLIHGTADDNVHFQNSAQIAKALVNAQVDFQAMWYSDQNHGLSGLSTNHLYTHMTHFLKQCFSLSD

human Fibroblast activation protein alpha (hFAP), sequence (Q12884 38-760): as above
Prolyl Oligopeptidase (hPREP), sequence (P48147 whole entry): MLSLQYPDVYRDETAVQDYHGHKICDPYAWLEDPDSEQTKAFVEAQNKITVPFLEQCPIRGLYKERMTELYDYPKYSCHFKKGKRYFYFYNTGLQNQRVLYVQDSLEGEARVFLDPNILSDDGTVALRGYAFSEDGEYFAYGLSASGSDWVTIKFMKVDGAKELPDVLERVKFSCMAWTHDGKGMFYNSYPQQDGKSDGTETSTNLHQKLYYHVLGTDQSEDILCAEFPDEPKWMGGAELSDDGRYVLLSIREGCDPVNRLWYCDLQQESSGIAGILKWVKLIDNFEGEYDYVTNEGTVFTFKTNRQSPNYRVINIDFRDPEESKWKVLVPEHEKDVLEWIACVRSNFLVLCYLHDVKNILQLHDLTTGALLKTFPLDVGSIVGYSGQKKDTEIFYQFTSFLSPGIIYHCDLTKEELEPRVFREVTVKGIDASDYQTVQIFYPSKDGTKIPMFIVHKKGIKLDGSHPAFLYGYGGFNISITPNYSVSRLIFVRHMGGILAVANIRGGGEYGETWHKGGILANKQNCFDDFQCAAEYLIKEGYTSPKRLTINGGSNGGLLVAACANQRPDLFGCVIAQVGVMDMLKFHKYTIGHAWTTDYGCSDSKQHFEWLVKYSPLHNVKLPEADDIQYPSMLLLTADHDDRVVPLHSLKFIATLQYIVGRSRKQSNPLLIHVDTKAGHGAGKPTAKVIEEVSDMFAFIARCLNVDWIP

SMILES	pIC50 [1]	microsomal CLint [2] [µL/min/mg]	hHep CLint (Human Hepatocytes (hHep)) [μL/min/1E6]	rHeps CLint (Rat Hepatocytes (rHep)) [μL/min/1E6]	pIC50 [3]	solubility (Kinetic solubility; kinetic from dmso stock) [µM]	pIC50 (hFAP)	solubility (Kinetic solubility) [µM]
Cc1cc(C(=O)NCC(=O)N2[C@H](C#N)C[C@@H]3C[C@@H]32)c2cc(F)ccc2n1 [Example 4, N-(2-((1S,3S,5S)-3-Cyano-2-azabicyclo[3.1.0]hexan-2-yl)-2-oxoethyl)-6-fluoro-2-methylquinoline-4-carboxamide]	4.66	< 3	<1	1.2	7.49	> 1000	7.19	
Cc1cc(C(=O)NCC(=O)N2[C@H](C#N)C[C@@H]3C[C@@H]32)c2cc(Cl)ccc2n1 [Example 5, 6-Chloro-N-(2-((1S,3S,5S)-3-cyano-2-azabicyclo[3.1.0]hexan-2-yl)-2-oxoethyl)-2-methylquinoline-4-carboxamide]	4.74	11		2.8	7.74	140 (≈ 51.6 µg/mL)	7.19	
Cc1cc(C(=O)NCC(=O)N2[C@H](C#N)C[C@@H]3C[C@@H]32)c2cc(Br)ccc2n1 [Example 6, 6-Bromo-N-(2-((1S,3S,5S)-3-cyano-2-azabicyclo[3.1.0]hexan-2-yl)-2-oxoethyl)-2-methylquinoline-4-carboxamide]	4.89	23		5.8	7.74	61 (≈ 25.2 µg/mL)	7.24	
Cc1cc(C(=O)NCC(=O)N2[C@H](C#N)C[C@@H]3C[C@@H]32)c2cc(I)ccc2n1 [Example 7, N-(2-((1S,3S,5S)-3-Cyano-2-azabicyclo[3.1.0]hexan-2-yl)-2-oxoethyl)-6-iodo-2-methylquinoline-4-carboxamide]	4.74	43		12	7.82	23 (≈ 10.6 µg/mL)	7.28	
CCc1ccc2nc(C)cc(C(=O)NCC(=O)N3[C@H](C#N)C[C@@H]4C[C@@H]43)c2c1 [Example 18, N-(2-((1S,3S,5S)-3-Cyano-2-azabicyclo[3.1.0]hexan-2-yl)-2-oxoethyl)-6-ethyl-2-methylquinoline-4-carboxamide]	< 4.30	120		18	7.60	800 (≈ 290 µg/mL)	7.10	
Cc1ccc2nc(C)cc(C(=O)NCC(=O)N3[C@H](C#N)C[C@@H]4C[C@@H]43)c2c1 [Example 19, N-(2-((1S,3S,5S)-3-Cyano-2-azabicyclo[3.1.0]hexan-2-yl)-2-oxoethyl)-2,6-dimethylquinoline-4-carboxamide]	4.37	12		<1	7.48	> 1000	7.10	
N#C[C@@H]1C[C@@H]2C[C@@H]2N1C(=O)CNC(=O)c1ccnc2cc(C3CC3)ccc12 [Example 47, N-(2-((1S,3S,5S)-3-Cyano-2-azabicyclo[3.1.0]hexan-2-yl)-2-oxoethyl)-7-cyclopropylquinoline-4-carboxamide]								590 (≈ 213 µg/mL)
N#C[C@@H]1CSCN1C(=O)CNC(=O)c1ccnc2ccccc12 [Reference Compound C, (R)-N-(2-(4-cyanothiazolidin-3-yl)-2-oxoethyl)-quinoline-4-carboxamide, reference compound]	8.15							

Further lines, results first:

pIC50 [1]	microsomal CLint [2] [µL/min/mg]	hHep CLint (Human Hepatocytes (hHep)) [μL/min/1E6]	rHeps CLint (Rat Hepatocytes (rHep)) [μL/min/1E6]	pIC50 [3]	solubility (Kinetic solubility; kinetic from dmso stock) [µM]	pIC50 (hFAP)	solubility (Kinetic solubility) [µM]	SMILES
< 4.30	< 3		<1	9.04	> 1000	8.59		CC(O)c1ccc2nccc(C(=O)NCC(=O)N3[C@H](C#N)C[C@@H]4C[C@@H]43)c2c1 (stereo partly drawn) [Example 14, N-(2-((1S,3S,5S)-3-Cyano-2-azabicyclo[3.1.0]hexan-2-yl)-2-oxoethyl)-6-(1-hydroxyethyl)quinoline-4-carboxamide]
< 4.30	< 3		<1	9.43	960 (≈ 350 µg/mL)	> 8.74		CC(O)c1ccc2c(C(=O)NCC(=O)N3[C@H](C#N)C[C@@H]4C[C@@H]43)ccnc2c1 (stereo partly drawn) [Example 25, N-(2-((1S,3S,5S)-3-Cyano-2-azabicyclo[3.1.0]hexan-2-yl)-2-oxoethyl)-7-(1-hydroxyethyl)quinoline-4-carboxamide]
< 4.30	< 3		<1	9.15	> 1000	8.68		CC(C)(O)c1ccc2c(C(=O)NCC(=O)N3[C@H](C#N)C[C@@H]4C[C@@H]43)ccnc2c1 [Example 26, N-(2-((1S,3S,5S)-3-Cyano-2-azabicyclo[3.1.0]hexan-2-yl)-2-oxoethyl)-7-(2-hydroxypropan-2-yl)quinoline-4-carboxamide]
< 4.30	42		16	9.39	200 (≈ 86.5 µg/mL)	8.51		CC(OC(F)(F)F)c1ccc2c(C(=O)NCC(=O)N3[C@H](C#N)C[C@@H]4C[C@@H]43)ccnc2c1 (stereo partly drawn) [Example 30, N-(2-((1S,3S,5S)-3-Cyano-2-azabicyclo[3.1.0]hexan-2-yl)-2-oxoethyl)-7-(1-(trifluoromethoxy)ethyl)quinoline-4-carboxamide]
< 4.30	46		72		37 (≈ 13.9 µg/mL)	8.70		CC1(c2ccc3c(C(=O)NCC(=O)N4[C@H](C#N)C[C@@H]5C[C@@H]54)ccnc3c2)CC1 [Example 32, N-(2-((1S,3S,5S)-3-Cyano-2-azabicyclo[3.1.0]hexan-2-yl)-2-oxoethyl)-7-(1-methylcyclopropyl)quinoline-4-carboxamide]
	170	25	9.8		700 (≈ 293 µg/mL)	8.85		N#C[C@@H]1C[C@@H]2C[C@@H]2N1C(=O)CNC(=O)c1ccnc2ccc(OCC(F)(F)F)cc12 [Example 33, N-(2-((1S,3S,5S)-3-Cyano-2-azabicyclo[3.1.0]hexan-2-yl)-2-oxoethyl)-6-(2,2,2-trifluoroethoxy)quinoline-4-carboxamide]
< 4.30	190		55		430 (≈ 195 µg/mL)	8.89		N#C[C@@H]1C[C@@H]2C[C@@H]2N1C(=O)CNC(=O)c1ccnc2ccc(OC3CCC(F)(F)CC3)cc12 [Example 38, N-(2-((1S,3S,5S)-3-Cyano-2-azabicyclo[3.1.0]hexan-2-yl)-2-oxoethyl)-6-((4,4-difluorocyclohexyl)oxy)quinoline-4-carboxamide]
< 4.30	77		13	9.39	960 (≈ 388 µg/mL)	8.82		CCOC1(c2ccc3c(C(=O)NCC(=O)N4[C@H](C#N)C[C@@H]5C[C@@H]54)ccnc3c2)CC1 [Example 39, N-(2-((1S,3S,5S)-3-Cyano-2-azabicyclo[3.1.0]hexan-2-yl)-2-oxoethyl)-7-(1-ethoxycyclopropyl)quinoline-4-carboxamide]
						8.25		N#C[C@@H]1C[C@@H]2C[C@@H]2N1C(=O)CNC(=O)c1ccnc2ccc(C3CC3)cc12 [Example 42, N-(2-((1S,3S,5S)-3-Cyano-2-azabicyclo[3.1.0]hexan-2-yl)-2-oxoethyl)-6-cyclopropylquinoline-4-carboxamide]

Reference: patent publication US20230406840A1, “N-(2-(3-CYANO-2-AZABICYCLO[3.1.0]HEXAN-2-YL)-2-OXOETHYL)QUINOLINE-4-CARBOXAMIDES” (AstraZeneca AB, priority 2022, published 2023)
